Tested on: not listed separately
Assay: Solubility of the compound in phosphate buffer at 50 uM
Type: physicochemical
Conditions: not given

For `COc1ccc2nc3cc(Cl)ccc3c(NCC#CCN3CCN(C)CC3)c2c1`, the solubility was “Insoluble”.

Tested on: N167
Assay: Antiprion activity against mouse prion protein 22L infected mouse N167 cells assessed as drug level required for more than 99 percent reduction of PrPSc level by Western blot method
Type: cell-based
Conditions: not given

In order of falling Activity:
1. COc1ccc2nc3cc(Cl)ccc3c(NC3CCN(Cc4ccc(Cl)cc4)CC3)c2c1  3 µM
2. COc1ccc2nc3cc(Cl)ccc3c(NCC#CCN3CCN(C)CC3)c2c1  3 µM
3. COc1ccc(CN2CCC(Nc3c4ccc(Cl)cc4nc4ccc(OC)cc34)CC2)cc1  2 µM
4. COc1ccc2nc3cc(Cl)ccc3c(NC3CCN(Cc4ccc(C#N)cc4)CC3)c2c1  1 µM

Tested on: not listed separately
Assay: Antiprion activity against mouse prion protein RML infected mouse ScN2a cells assessed as reduction of PrPSc level by Western blot method
Type: cell-based
Conditions: not given

In order of rising EC50:
1. COc1ccc2nc3cc(Cl)ccc3c(NCC#CCN3CCN(C)CC3)c2c1  27 nM
2. COc1ccc2nc3cc(Cl)ccc3c(Nc3ccc(N4CCN(C(C)=O)CC4)cc3)c2c1  35 nM
3. CCN1CCN(c2ccc(Nc3c4ccc(Cl)cc4nc4ccc(OC)cc34)cc2)CC1  80 nM
4. COc1ccc(CN2CCC(Nc3c4ccc(Cl)cc4nc4ccc(OC)cc34)CC2)cc1  82 nM
5. CN1CCN(c2ccc(Nc3c4c(nc5cc(Cl)ccc35)CCCC4)cc2)CC1  82 nM
6. COc1ccc2nc3cc(Cl)ccc3c(NC3CCN(Cc4ccc(Cl)cc4)CC3)c2c1  280 nM
7. COc1ccc2nc3cc(Cl)ccc3c(NC3CCN(Cc4ccc(C#N)cc4)CC3)c2c1  550 nM
8. COc1ccc2nc3cc(Cl)ccc3c(N(C)c3ccccc3)c2c1  2510 nM

Tested on: ScN2a
Assay: Antiprion activity against mouse prion protein RML infected mouse ScN2a cells assessed as drug level required for more than 99 percent reduction of PrPSc level by Western blot method
Type: cell-based
Conditions: not given

In order of rising Activity:
1. COc1ccc2nc3cc(Cl)ccc3c(Nc3ccc(N4CCN(C(C)=O)CC4)cc3)c2c1  0.1 µM
2. CCN1CCN(c2ccc(Nc3c4ccc(Cl)cc4nc4ccc(OC)cc34)cc2)CC1  1 µM
3. COc1ccc2nc3cc(Cl)ccc3c(NC3CCN(Cc4ccc(Cl)cc4)CC3)c2c1  1 µM
4. CN1CCN(c2ccc(Nc3c4c(nc5cc(Cl)ccc35)CCCC4)cc2)CC1  1 µM
5. COc1ccc2nc3cc(Cl)ccc3c(NC3CCN(Cc4ccc(C#N)cc4)CC3)c2c1  1 µM
6. COc1ccc2nc3cc(Cl)ccc3c(NCC#CCN3CCN(C)CC3)c2c1  1 µM
7. COc1ccc(CN2CCC(Nc3c4ccc(Cl)cc4nc4ccc(OC)cc34)CC2)cc1  1.5 µM
8. COc1ccc2nc3cc(Cl)ccc3c(N(C)c3ccccc3)c2c1  5 µM

Target: Major prion protein (Homo sapiens) (UniProt P04156)
Assay: Binding affinity to truncated human PrP 121-231 at 50 uM by surface plasmon resonance method
Conditions: not given

In order of falling RUmax:
1. COc1ccc2nc3cc(Cl)ccc3c(Nc3ccc(N4CCN(C(C)=O)CC4)cc3)c2c1  210%
2. CCN1CCN(c2ccc(Nc3c4ccc(Cl)cc4nc4ccc(OC)cc34)cc2)CC1  194%
3. CCN(CC)CCCCNc1c2ccc(Cl)cc2nc2ccc(OC)cc12  178%
4. COc1ccc2nc3cc(Cl)ccc3c(NCCCN(C)C)c2c1  164%
5. CCN(CC)CCCNc1c2ccc(Cl)cc2nc2ccc(OC)cc12  162%
6. COc1ccc(CN2CCC(Nc3c4ccc(Cl)cc4nc4ccc(OC)cc34)CC2)cc1  160%
7. CCN(CC)CCNc1c2ccc(Cl)cc2nc2ccc(OC)cc12  153%
8. COc1ccc2nc3cc(Cl)ccc3c(N)c2c1  139%
9. CN1CCN(c2ccc(Nc3c4c(nc5cc(Cl)ccc35)CCCC4)cc2)CC1  127%
10. COc1ccc2nc3cc(Cl)ccc3c(NC3CCN(Cc4ccc(C#N)cc4)CC3)c2c1  109%
11. COc1ccc2nc3cc(Cl)ccc3c(NC3CCN(Cc4ccc(Cl)cc4)CC3)c2c1  98.3%
12. COc1ccc2nc3cc(Cl)ccc3c(N(C)c3ccccc3)c2c1  43.2%

Tested on: not listed separately
Assay: Effective permeability of the compound at pH 7.4 at 30 to 50 uM by PAMPA assay
Type: ADME
Conditions: read-out: Peff

In order of falling Papp at up to 50 µM:
1. CCN(CC)CCCNc1c2ccc(Cl)cc2nc2ccc(OC)cc12  22 ×10⁻⁶ cm/s
2. CCN(CC)CCNc1c2ccc(Cl)cc2nc2ccc(OC)cc12  21 ×10⁻⁶ cm/s
3. CCN(CC)CCCCNc1c2ccc(Cl)cc2nc2ccc(OC)cc12  16.4 ×10⁻⁶ cm/s
4. COc1ccc2nc3cc(Cl)ccc3c(NC3CCN(Cc4ccc(Cl)cc4)CC3)c2c1  15.5 ×10⁻⁶ cm/s
5. COc1ccc2nc3cc(Cl)ccc3c(N)c2c1  14.8 ×10⁻⁶ cm/s
6. COc1ccc2nc3cc(Cl)ccc3c(NCCCN(C)C)c2c1  13.3 ×10⁻⁶ cm/s
7. COc1ccc2nc3cc(Cl)ccc3c(NCC#CCN3CCN(C)CC3)c2c1  11.5 ×10⁻⁶ cm/s
8. COc1ccc2nc3cc(Cl)ccc3c(NC3CCN(Cc4ccc(C#N)cc4)CC3)c2c1  9.15 ×10⁻⁶ cm/s
9. COc1ccc2nc3cc(Cl)ccc3c(Nc3ccc(N4CCN(C(C)=O)CC4)cc3)c2c1  8.79 ×10⁻⁶ cm/s
10. COc1ccc(CN2CCC(Nc3c4ccc(Cl)cc4nc4ccc(OC)cc34)CC2)cc1  7.54 ×10⁻⁶ cm/s
11. CCN1CCN(c2ccc(Nc3c4ccc(Cl)cc4nc4ccc(OC)cc34)cc2)CC1  6.13 ×10⁻⁶ cm/s
12. Cn1c(=O)c2c(ncn2C)n(C)c1=O [CAFFEINE]  2.46 ×10⁻⁶ cm/s

With `C=C[C@H]1C[N@@]2CC[C@H]1C[C@@H]2[C@@H](O)c1ccnc2ccc(OC)cc12` [QUINIDINE] the Papp was 11.5 ×10⁻⁶ cm/s.

Tested on: not listed separately
Assay: Antiprion activity against mouse prion protein 22L infected mouse N167 cells assessed as reduction of PrPSc level by Western blot method
Type: cell-based
Conditions: not given

In order of falling EC50:
1. COc1ccc2nc3cc(Cl)ccc3c(NCC#CCN3CCN(C)CC3)c2c1  990 nM
2. CCN1CCN(c2ccc(Nc3c4ccc(Cl)cc4nc4ccc(OC)cc34)cc2)CC1  960 nM
3. COc1ccc(CN2CCC(Nc3c4ccc(Cl)cc4nc4ccc(OC)cc34)CC2)cc1  520 nM
4. COc1ccc2nc3cc(Cl)ccc3c(NC3CCN(Cc4ccc(Cl)cc4)CC3)c2c1  340 nM
5. COc1ccc2nc3cc(Cl)ccc3c(NC3CCN(Cc4ccc(C#N)cc4)CC3)c2c1  140 nM

Tested on: not listed separately
Assay: Cytotoxicity against mouse N2A cells assessed as maximal tolerant concentration
Type: cell-based
Conditions: read-out: MTD

Compared with `CCN1CCN(c2ccc(Nc3c4ccc(Cl)cc4nc4ccc(OC)cc34)cc2)CC1`, `COc1ccc2nc3cc(Cl)ccc3c(Nc3ccc(N4CCN(C(C)=O)CC4)cc3)c2c1` is 1.7-fold higher in MNTC: 3 µM for the first, 5 µM for the second.

`COc1ccc(CN2CCC(Nc3c4ccc(Cl)cc4nc4ccc(OC)cc34)CC2)cc1` and `COc1ccc2nc3cc(Cl)ccc3c(NC3CCN(Cc4ccc(Cl)cc4)CC3)c2c1` are within 1.5-fold of each other in MNTC: 10 µM for the first, 12 µM for the second.

Going from `CN1CCN(c2ccc(Nc3c4c(nc5cc(Cl)ccc35)CCCC4)cc2)CC1` to `COc1ccc2nc3cc(Cl)ccc3c(NCC#CCN3CCN(C)CC3)c2c1`, the MNTC falls from > 10 µM to 8 µM.

Compared with `COc1ccc2nc3cc(Cl)ccc3c(NC3CCN(Cc4ccc(C#N)cc4)CC3)c2c1`, `COc1ccc2nc3cc(Cl)ccc3c(N(C)c3ccccc3)c2c1` is 1.6-fold higher in MNTC: 5 µM for the first, 8 µM for the second.

From ChEMBL document CHEMBL2150853 (Eur J Med Chem, 2011)
